Measured values: ChEMBL document CHEMBL4414553, “Imidazopyridine-based selective and multifunctional ligands of biological targets associated with psychiatric and neurodegenerative diseases” (Eur J Med Chem, 2019)

Assays:
[1] = target: Translocator protein (Homo sapiens, UniProt P30536); test: Inhibition of TSPO (unknown origin)
[2] = Inhibition of CBR (unknown origin); parameters: species or system Homo sapiens
[3] = Lipophilicity, log D of the compound; type: physicochemical; conditions: octanol/water
[4] = Partition coefficient, log P of the compound; type: physicochemical; conditions: octanol/water
[5] = target: T1, D(4) dopamine receptor (Homo sapiens, UniProt P21917); test: Agonist activity at dopamine D4 receptor (unknown origin)
T1 sequence (P21917 whole entry): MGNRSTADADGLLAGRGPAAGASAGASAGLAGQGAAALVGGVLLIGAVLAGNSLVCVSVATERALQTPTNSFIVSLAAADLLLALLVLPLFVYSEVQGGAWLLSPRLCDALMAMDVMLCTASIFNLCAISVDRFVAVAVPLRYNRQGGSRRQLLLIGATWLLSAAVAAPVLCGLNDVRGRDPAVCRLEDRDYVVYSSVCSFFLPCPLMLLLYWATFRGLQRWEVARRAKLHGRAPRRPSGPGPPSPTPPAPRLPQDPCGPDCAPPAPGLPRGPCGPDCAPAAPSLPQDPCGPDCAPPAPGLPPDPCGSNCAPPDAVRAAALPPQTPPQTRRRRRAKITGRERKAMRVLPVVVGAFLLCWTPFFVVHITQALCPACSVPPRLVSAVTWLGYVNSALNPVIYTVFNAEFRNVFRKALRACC

[6] = target: T2, Adenosine receptor A1 (Homo sapiens, UniProt P30542); test: Inhibition of human A1 receptor
T2 sequence (P30542 whole entry): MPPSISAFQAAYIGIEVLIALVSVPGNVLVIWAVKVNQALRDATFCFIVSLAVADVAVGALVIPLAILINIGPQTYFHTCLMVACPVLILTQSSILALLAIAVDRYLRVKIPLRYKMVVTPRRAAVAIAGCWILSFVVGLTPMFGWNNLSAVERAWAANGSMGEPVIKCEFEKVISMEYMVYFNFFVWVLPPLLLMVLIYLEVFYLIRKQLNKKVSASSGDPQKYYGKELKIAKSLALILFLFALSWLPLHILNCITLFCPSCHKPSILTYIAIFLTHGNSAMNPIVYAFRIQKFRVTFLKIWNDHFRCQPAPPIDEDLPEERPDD

[7] = target: Adenosine A2 receptor (Homo sapiens, UniProt P29275+P29274); test: Inhibition of GFP-tagged human A2 receptor expressed in HEK cells by FRET-binding assay; type: cell-based
[8] = target: Glycogen synthase kinase-3 (Homo sapiens, UniProt P49840+P49841); test: Inhibition of GSK3 (unknown origin); type: protein assay
[9] = target: Glutamate [NMDA] receptor; test: Modulator activity at NMDA receptor (unknown origin); type: protein-complex assay, Homo sapiens
[10] = tested on: Mus musculus; test: Inhibition of DYRK1A in mouse at 3 mg/kg relative to control; type: functional
[11] = target: T3, Fatty-acid amide hydrolase 1 (Homo sapiens, UniProt O00519); test: Inhibition of FAAH (unknown origin)
T3 sequence (O00519 whole entry): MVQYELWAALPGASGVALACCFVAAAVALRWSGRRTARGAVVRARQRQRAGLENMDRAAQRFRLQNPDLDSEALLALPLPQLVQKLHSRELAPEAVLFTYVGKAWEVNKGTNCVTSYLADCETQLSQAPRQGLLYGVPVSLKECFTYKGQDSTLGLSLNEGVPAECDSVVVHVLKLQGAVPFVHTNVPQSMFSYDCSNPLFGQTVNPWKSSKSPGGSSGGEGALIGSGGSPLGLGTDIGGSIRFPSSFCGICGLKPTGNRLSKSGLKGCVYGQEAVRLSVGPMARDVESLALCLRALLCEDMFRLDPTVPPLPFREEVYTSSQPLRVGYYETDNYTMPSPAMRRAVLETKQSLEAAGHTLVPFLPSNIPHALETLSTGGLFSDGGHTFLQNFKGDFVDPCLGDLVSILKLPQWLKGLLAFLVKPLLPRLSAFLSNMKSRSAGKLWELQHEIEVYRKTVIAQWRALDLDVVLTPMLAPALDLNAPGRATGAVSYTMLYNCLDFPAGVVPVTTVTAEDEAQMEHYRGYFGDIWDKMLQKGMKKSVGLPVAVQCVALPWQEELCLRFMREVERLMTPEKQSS

[12] = Inhibition of MARK (unknown origin); parameters: species or system Homo sapiens
[13] = target: T4, 5-hydroxytryptamine receptor 4 (Homo sapiens, UniProt Q13639); test: Antagonist activity at 5-HT4 receptor (unknown origin)
[14] = target: cAMP and cAMP-inhibited cGMP 3',5'-cyclic phosphodiesterase 10A (Homo sapiens, UniProt Q9Y233); test: Inhibition of human PDE10
[15] = target: T5, 5-hydroxytryptamine receptor 3A (Homo sapiens, UniProt P46098); test: Antagonist activity at 5-HT3 receptor (unknown origin)
T5 sequence (P46098 whole entry): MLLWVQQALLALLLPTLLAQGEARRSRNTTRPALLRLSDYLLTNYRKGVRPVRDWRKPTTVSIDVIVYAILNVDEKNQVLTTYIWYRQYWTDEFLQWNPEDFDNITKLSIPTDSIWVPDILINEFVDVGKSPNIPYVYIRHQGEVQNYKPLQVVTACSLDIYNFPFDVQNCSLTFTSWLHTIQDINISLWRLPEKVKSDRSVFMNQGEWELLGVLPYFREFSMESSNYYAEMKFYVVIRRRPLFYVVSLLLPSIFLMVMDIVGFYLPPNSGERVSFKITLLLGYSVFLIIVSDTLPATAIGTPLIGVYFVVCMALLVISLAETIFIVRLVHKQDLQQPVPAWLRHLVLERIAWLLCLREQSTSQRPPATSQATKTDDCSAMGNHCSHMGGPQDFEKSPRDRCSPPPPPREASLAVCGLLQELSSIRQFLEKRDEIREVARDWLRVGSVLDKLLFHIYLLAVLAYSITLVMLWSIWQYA

[16] = target: T6, Sodium- and chloride-dependent glycine transporter 1 (Homo sapiens, UniProt P48067); test: Inhibition of GlyT1 (unknown origin)
T6 sequence (P48067 whole entry): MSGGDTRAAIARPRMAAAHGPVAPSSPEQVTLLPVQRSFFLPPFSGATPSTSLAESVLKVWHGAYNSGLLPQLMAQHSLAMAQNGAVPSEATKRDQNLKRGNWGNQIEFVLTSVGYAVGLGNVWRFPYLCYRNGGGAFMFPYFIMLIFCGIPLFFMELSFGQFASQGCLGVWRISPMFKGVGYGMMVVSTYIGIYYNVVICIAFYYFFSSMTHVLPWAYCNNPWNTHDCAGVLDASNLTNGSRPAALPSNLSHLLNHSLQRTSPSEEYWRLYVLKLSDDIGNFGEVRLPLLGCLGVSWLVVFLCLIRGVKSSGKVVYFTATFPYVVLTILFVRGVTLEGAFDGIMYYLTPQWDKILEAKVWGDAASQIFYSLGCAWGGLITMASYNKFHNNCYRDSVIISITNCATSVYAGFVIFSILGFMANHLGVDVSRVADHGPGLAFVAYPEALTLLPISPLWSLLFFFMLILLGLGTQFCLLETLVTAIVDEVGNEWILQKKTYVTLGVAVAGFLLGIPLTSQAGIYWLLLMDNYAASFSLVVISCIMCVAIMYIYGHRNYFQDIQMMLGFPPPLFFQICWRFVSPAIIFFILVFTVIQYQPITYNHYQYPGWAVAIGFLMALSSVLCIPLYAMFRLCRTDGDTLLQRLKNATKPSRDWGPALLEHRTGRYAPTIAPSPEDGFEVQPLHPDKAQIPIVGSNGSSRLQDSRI

[17] = target: T4, 5-hydroxytryptamine receptor 4; test: Inhibition of 5-HT4 receptor (unknown origin)
[18] = target: Dual specificity tyrosine-phosphorylation-regulated kinase 1A (Homo sapiens, UniProt Q13627); test: Inhibition of DYRK1A (unknown origin) by TR-FRET assay
[19] = tested on: Mus musculus; test: Inhibition of DYRK1A in mouse at 9 mg/kg relative to control; type: functional
[20] = target: Histamine H3 receptor (Cavia porcellus, UniProt Q9JI35); test: Inhibition of Guinea Pig Ileum H3R
Chain of Histamine H3 receptor (Q9JI35 whole entry): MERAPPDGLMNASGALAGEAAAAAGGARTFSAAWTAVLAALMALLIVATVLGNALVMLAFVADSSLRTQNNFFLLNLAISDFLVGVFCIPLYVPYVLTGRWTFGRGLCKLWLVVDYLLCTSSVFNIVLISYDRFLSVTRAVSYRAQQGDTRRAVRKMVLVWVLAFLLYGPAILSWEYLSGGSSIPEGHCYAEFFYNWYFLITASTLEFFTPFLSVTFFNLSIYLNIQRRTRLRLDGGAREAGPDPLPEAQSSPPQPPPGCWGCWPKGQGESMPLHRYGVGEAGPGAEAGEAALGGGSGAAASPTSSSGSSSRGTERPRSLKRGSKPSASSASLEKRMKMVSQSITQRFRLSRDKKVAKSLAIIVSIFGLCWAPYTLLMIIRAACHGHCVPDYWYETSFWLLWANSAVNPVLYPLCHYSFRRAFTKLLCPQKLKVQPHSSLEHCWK

Chain of Translocator protein (P30536 whole entry): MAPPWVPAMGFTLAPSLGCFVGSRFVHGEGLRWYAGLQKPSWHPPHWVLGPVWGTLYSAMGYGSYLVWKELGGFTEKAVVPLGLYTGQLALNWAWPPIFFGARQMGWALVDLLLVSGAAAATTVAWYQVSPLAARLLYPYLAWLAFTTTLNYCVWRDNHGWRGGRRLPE
T4 sequence (Q13639 whole entry): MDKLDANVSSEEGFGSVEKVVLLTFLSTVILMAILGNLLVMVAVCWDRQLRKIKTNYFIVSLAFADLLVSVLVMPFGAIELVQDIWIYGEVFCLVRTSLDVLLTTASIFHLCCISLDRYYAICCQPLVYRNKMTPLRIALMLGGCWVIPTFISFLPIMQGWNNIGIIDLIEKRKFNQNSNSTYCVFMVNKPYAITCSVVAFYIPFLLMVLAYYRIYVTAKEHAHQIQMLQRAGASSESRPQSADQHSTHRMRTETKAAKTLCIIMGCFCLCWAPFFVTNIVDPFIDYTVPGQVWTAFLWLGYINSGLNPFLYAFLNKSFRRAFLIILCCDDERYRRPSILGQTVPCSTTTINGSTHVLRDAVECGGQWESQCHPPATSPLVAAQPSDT
Chain of cAMP and cAMP-inhibited cGMP 3',5'-cyclic phosphodiesterase 10A (Q9Y233 whole entry): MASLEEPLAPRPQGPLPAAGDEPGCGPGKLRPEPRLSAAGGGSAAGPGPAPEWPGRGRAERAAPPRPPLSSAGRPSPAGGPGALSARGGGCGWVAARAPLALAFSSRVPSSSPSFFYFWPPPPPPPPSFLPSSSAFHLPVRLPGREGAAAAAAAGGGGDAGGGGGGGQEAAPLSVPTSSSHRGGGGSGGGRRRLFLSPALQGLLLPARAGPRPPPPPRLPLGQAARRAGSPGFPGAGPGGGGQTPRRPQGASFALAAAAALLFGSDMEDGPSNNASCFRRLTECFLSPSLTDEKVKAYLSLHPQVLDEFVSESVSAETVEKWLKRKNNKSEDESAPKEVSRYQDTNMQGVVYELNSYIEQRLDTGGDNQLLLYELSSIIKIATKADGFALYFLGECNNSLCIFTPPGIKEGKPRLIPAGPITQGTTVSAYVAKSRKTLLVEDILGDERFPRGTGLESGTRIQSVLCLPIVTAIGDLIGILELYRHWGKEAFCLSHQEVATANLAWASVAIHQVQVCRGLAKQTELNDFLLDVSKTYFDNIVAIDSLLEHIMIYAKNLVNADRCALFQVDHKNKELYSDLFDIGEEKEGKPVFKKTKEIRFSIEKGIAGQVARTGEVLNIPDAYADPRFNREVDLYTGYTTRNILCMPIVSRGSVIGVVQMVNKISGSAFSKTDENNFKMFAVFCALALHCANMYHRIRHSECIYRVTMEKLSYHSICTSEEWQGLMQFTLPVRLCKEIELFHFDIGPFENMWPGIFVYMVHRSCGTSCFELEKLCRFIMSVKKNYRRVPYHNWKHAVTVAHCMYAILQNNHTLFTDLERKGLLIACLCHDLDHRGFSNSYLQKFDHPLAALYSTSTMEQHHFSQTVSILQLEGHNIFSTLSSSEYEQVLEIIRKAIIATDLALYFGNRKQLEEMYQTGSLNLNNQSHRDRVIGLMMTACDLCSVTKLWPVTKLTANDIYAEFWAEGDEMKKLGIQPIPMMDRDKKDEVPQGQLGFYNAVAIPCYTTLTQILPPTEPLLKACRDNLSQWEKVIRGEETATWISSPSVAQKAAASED

CCCN(CCC)C(=O)Cc1c(-c2ccccc2)nc2ccc([N+](=O)[O-])cn12
IC50 [1]: 11.8 nM | IC50 [2]: 2740 nM

c1cc2[nH]cnc2cn1
logD ([3]; read-out: logD): 0.03 | logP ([4]; read-out: logP): 0.04

CCCN(CCC)C(=O)Cn1c(-c2ccc(Cl)cc2)nc2cccnc21
IC50 [2]: 380 nM

CCCN(CCC)C(=O)Cc1c(-c2ccc(Cl)cc2)nc2c(NC(=O)CN(Cc3ccccn3)Cc3ccccn3)cccn12
Ki [1]: 293 nM

CCCN(CCC)C(=O)Cc1c(-c2ccc(Cl)cc2)nc2c(N)cccn12
Ki [1]: 1.6 nM

c1ccn2ccnc2c1
logD [3]: 0.73 | logP [4]: 0.41

Clc1ccc(N2CCN(Cc3cn4ccccc4n3)CC2)cc1Cl
Ki [5]: 0.99 nM

Cc1ccc(-c2nc3ccccn3c2NC2CCCCC2)cc1
Ki [6]: 2060 nM | Ki [7]: > 100000 nM

O=S(=O)(NCCCn1ccnc1)c1ccnc2[nH]c(-c3ccc(C(F)(F)F)cc3)nc12
IC50 [8]: 1600 nM

Cc1ccc2c(c1)C1CC(C)CCC1N2c1c(C(F)(F)F)nc2c(C)cccn12 (stereo not given)
IC50 [9]: 40000 nM

c1ccn2cncc2c1
logD ([3]; read-out: logD): 0.17 | logP ([4]; read-out: logP): 0.41

Cc1nc2ccc(-c3cc(N)nc(N)c3)nc2n1C(C)C
inhibition in vivo at 3 mg/kg [10]: 49%

Cc1ccc2c(c1)C1CN(C)CCC1N2CCC(=O)N(C)c1c(C(F)(F)F)nc2ccc(C)cn12 (stereo not given)
IC50 [9]: 33000 nM

O=C(COc1ccc(-c2ccccc2)cc1)Nc1cccc(-c2nc3ncccc3o2)c1
IC50 [11]: 630 nM

N[C@H]1CCCC(F)(F)[C@@H]1NC(=O)c1cc(-c2cnc3ccccn23)cs1
IC50 [12]: 15 nM

N[C@H]1CCCC(F)(F)[C@@H]1NC(=O)c1nc(-c2cnc3ccccn23)c(Cl)s1
IC50 [12]: 720 nM

CCCCN1CCC(CNC(=O)c2cc(Cl)cn3ccnc23)CC1
IC50 [13]: < 10 nM

CCCN(CCC)C(=O)Cc1c(-c2ccc(Cl)cc2)nc2c(CC(=O)CCCCC(=O)Nc3ccn([C@@H]4O[C@H](CO)[C@@H](O)[C@@H]4O)c(=O)n3)cccn12
IC50 [1]: 2.13 nM

Cc1nc2ccc(-c3cc(N)nc(N)c3)nc2n1C1CC1
inhibition in vivo at 3 mg/kg [10]: 44%

Cc1nc(C2CC2c2nc3ccccn3c2C)cc(-n2nc(C)nc2C)n1 (stereo not given)
Ki [14]: 2.1 nM

O=C(NC1CN2CCC1CC2)c1cc(Cl)cn2ccnc12 (stereo not given)
IC50 [15]: 17.5 nM | Ki [15]: 12 nM

c1cnc2[nH]cnc2c1
logD ([3]; read-out: logD): 0.41 | logP ([4]; read-out: logP): 0.41

CCC/C=C/COCC(=O)Nc1cccc(-c2nc3ncccc3o2)c1
IC50 [11]: 17000 nM

Fc1ccc(C(CCCN2CCC(Cc3nc4cccnc4n3Cc3cccs3)CC2)c2ccc(F)cc2)cc1
IC50 [16]: 549 nM

CCC/C=C/COCC(=O)Nc1cccc(-c2nc3cccnc3[nH]2)c1
IC50 [11]: 73000 nM

Cc1cn2c(N)c(Cl)cc(C(=O)NCC3CCNCC3)c2n1
Ki [15]: 26 nM

COc1ccc(-c2ccnc3[nH]c(-c4ccc(C(=O)N5CCCCC5)cc4)nc23)cc1
IC50 [8]: 31 nM

CCN1C(=O)N(C(=O)NC2CC3CCC(C2)N3C)C2C=CC=CC21 (stereo not given)
EC50 [17]: 360 nM

CC(C)N1C(=O)N(C(=O)NC2CC3CCC(C2)N3C)C2C=CC=CC21 (stereo not given)
EC50 [17]: 72 nM

CCOCCn1c(CN2CCN(CCCC(c3ccc(F)cc3)c3ccc(F)cc3)CC2)nc2cccnc21
IC50 [16]: 155 nM

CCSc1ccncc1NC(=O)c1ccnc2[nH]c(-c3ccc(N4CCCC4)cc3)nc12
IC50 [8]: 3 nM

Cn1cnc2cnccc21
logD ([3]; read-out: logD): 0.26 | logP ([4]; read-out: logP): 0.27

Cn1cnc2cccnc21
logD ([3]; read-out: logD): 0.63 | logP ([4]; read-out: logP): 0.63

O=C(NCCCn1ccnc1)c1ccnc2[nH]c(-c3ccc(C(F)(F)F)cc3)nc12
IC50 [8]: 13 nM

Cc1nc2ccc(-c3cc(N)nc(N)c3)nc2n1C[C@@H](C)Oc1ccccc1
IC50 [18]: 8 nM | inhibition in vivo at 9 mg/kg [19]: 46%

O=C(COc1ccc(-c2ccccc2)cc1)Nc1cccc(-c2nc3cccnc3[nH]2)c1
IC50 [11]: 13000 nM

CCCN(CCC)C(=O)Cc1c(-c2ccc(Cl)cc2)nc2c(NC(=O)CCC(=O)OCC)cccn12
Ki [1]: 0.86 nM

CCCN(CCC)C(=O)Cc1c(-c2ccc(OC)cc2)nc2c(Cl)cc(Cl)cn12
Ki [1]: 0.537 nM | IC50 [2]: > 10000 nM

CCCN(CCC)C(=O)Cc1c(-c2ccc([N+](=O)[O-])cc2)nc2c(Cl)cc(Cl)cn12
Ki [1]: 0.15 nM

CCCCN(C)C(=O)Cc1c(-c2ccc(OC)cc2)nc2c(Cl)cc(Cl)cn12
Ki [1]: 0.882 nM | IC50 [2]: > 10000 nM

CCCN(CCC)C(=O)Cc1c(-c2ccc(Cl)cc2)[nH]c2ccc(Cl)cc12
Ki [1]: 3.9 nM | IC50 [2]: > 1000 nM

CCCN(CCC)C(=O)Cc1c(-c2ccc(Cl)cc2)nc2c(Cl)cc(Cl)cn12 [ALPDEM]
Ki [1]: 0.41 nM

CCCN(CCC)C(=O)Cc1c(-c2ccc(Cl)cc2)nc2ccc(Cl)cn12 [ALPIDEM]
IC50 [1]: 7.9 nM | Ki [1]: 0.5 to 7 nM | IC50 [2]: 26 nM

Cn1nc(N2CCC(OC(=O)N3CCN(C4CCC4)CC3)CC2)ccc1=O [LML-134]
Ki [20]: 12 nM

O=C1NC2CCCCN2C12CCN(CCCN1c3ccccc3CCc3ccc(Cl)cc31)CC2 (stereo not given) [MOSAPRAMINE]
Ki [5]: 0.03 nM
